Reference: article PMC7531004, “Discovery of gramicidin A analogues with altered activities by multidimensional screening of a one-bead-one-compound library” (Nature Communications, 2020)
Where a SMILES comes first, the peptide text is derived from it. [ ]: non-standard residue; d: D form. The star is where a group is joined. NHCH2CH2OH = OCCN*; For = O=C*

Legend:
[1] = test system: Streptococcus pyogenes SSI-9; test: Antibacterial activity assay of bead-derived peptides (three concentrations); type: cell-based; parameters: key: +++: inhibition by the 640-fold diluted peptide solution; ++: inhibition by the 160-fold diluted solution; +: inhibition by the 40-fold diluted solution; -: no inhibition; conditions: S. pyogenes, bead-derived peptide solution, three concentrations
Method in brief: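 Three stock dilutions per peptide (none, 4-fold, 16-fold in DMSO) are screened in 96-well format. The medium is blood-supplemented cation-adjusted MHB, inoculated with 2 × 10^5 CFU S. pyogenes SSI-9. Growth is read as cell precipitation at 18 h, 37 °C.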

[2] = cell viability/%
Method in brief: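 First, library peptide stocks are diluted 250-fold in RPMI1640 with 10% heat-inactivated FBS. Next, they are mixed with P388 cells to give 1 × 10^4 cells/mL and incubated 92 h at 37 °C, 5% CO2. Finally, viability (%) is scored by WST-1 absorbance at 415 nm.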

[3] = H+/Na+ transport assay of bead-derived peptides (one-point); type: biochemical; parameters: key: relative activity; mean of two control wells = 1.00; conditions: bead-derived peptide solution, EYPC/EYPG LUVs;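 further: relative to parent gramicidin A activity set to 1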
Method in brief: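 One-point screen: peptide + pyranine-loaded LUVs, 30 min RT with vortexing, 96-well. Read-out is fluorescence intensity scaled as 100 × (Ix – I0)/(Imax – I0). Imax from Triton X-100, I0 from untreated vesicles, and the mean of the two control wells is set to 1.00.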

Structure (SMILES) | antibacterial activity [1] | viability [2] | H+/Na+ transport activity normalized against the value of 1 (1.00) [3]
CC(C)C[C@@H](NC(=O)[C@H](C)NC(=O)CNC(=O)[C@@H](NC=O)C(C)C)C(=O)N[C@@H](C)C(=O)N[C@@H](C(=O)N[C@H](C(=O)N[C@H](CC(C)C)C(=O)N[C@@H](Cc1c[nH]c2ccccc12)C(=O)N[C@H](CC(C)C)C(=O)N[C@@H](Cc1c[nH]c2ccccc12)C(=O)N[C@@H](C(=O)N[C@@H](Cc1c[nH]c2ccccc12)C(=O)N[C@@H](C(=O)N[C@@H](Cc1c[nH]c2ccccc12)C(=O)NCCO)[C@H](C)O)[C@H](C)O)C(C)C)C(C)C [compound 4328] (For-VGA[dL]A[dV]V[dL]W[dL]W[dT]W[dT]W-NHCH2CH2OH) | + | 100% | 1.13
CC(C)C[C@@H](NC(=O)[C@H](C)NC(=O)CNC(=O)[C@@H](NC=O)C(C)C)C(=O)N[C@@H](C)C(=O)N[C@@H](C(=O)N[C@H](C(=O)N[C@@H](C(=O)N[C@@H](Cc1c[nH]c2ccccc12)C(=O)N[C@@H](C(=O)N[C@@H](Cc1c[nH]c2ccccc12)C(=O)N[C@@H](C(=O)N[C@@H](Cc1c[nH]c2ccccc12)C(=O)N[C@H](CC(C)C)C(=O)N[C@@H](Cc1c[nH]c2ccccc12)C(=O)NCCO)C(C)C)[C@H](C)O)C(C)C)C(C)C)C(C)C [compound 2207] (For-VGA[dL]A[dV]V[dV]W[dT]W[dV]W[dL]W-NHCH2CH2OH) | - | 100% | 1.18
CNC(=O)C[C@@H](NC(=O)[C@H](Cc1c[nH]c2ccccc12)NC(=O)[C@H](NC(=O)[C@H](Cc1c[nH]c2ccccc12)NC(=O)[C@H](NC(=O)[C@H](Cc1c[nH]c2ccccc12)NC(=O)[C@@H](CC(C)C)NC(=O)[C@@H](NC(=O)[C@@H](CC(C)C)NC(=O)[C@H](C)NC(=O)[C@@H](CC(C)C)NC(=O)[C@H](C)NC(=O)CNC(=O)[C@@H](NC=O)C(C)C)C(C)C)C(C)C)C(C)C)C(=O)N[C@@H](Cc1c[nH]c2ccccc12)C(=O)NCCO [compound 6265] (For-VGA[dL]A[dL]V[dL]W[dV]W[dV]W[dD](NHMe)W-NHCH2CH2OH) | - | 79.9% | 1.03
CC(C)C[C@@H](NC(=O)[C@H](Cc1c[nH]c2ccccc12)NC(=O)[C@H](NC(=O)[C@H](Cc1c[nH]c2ccccc12)NC(=O)[C@@H](CC(C)C)NC(=O)[C@H](Cc1c[nH]c2ccccc12)NC(=O)[C@@H](CC(C)C)NC(=O)[C@@H](NC(=O)[C@H](NC(=O)[C@H](C)NC(=O)[C@H](NC(=O)[C@H](C)NC(=O)CNC(=O)[C@@H](NC=O)C(C)C)C(C)C)[C@H](C)O)C(C)C)C(C)C)C(=O)N[C@@H](Cc1c[nH]c2ccccc12)C(=O)NCCO [compound 10686] (For-VGA[dV]A[dT]V[dL]W[dL]W[dV]W[dL]W-NHCH2CH2OH) | - | 100% | 1.05
CC(C)C[C@@H](NC(=O)[C@H](Cc1c[nH]c2ccccc12)NC(=O)[C@H](NC(=O)[C@H](Cc1c[nH]c2ccccc12)NC(=O)[C@@H](CC(C)C)NC(=O)[C@H](Cc1c[nH]c2ccccc12)NC(=O)[C@@H](CC(C)C)NC(=O)[C@@H](NC(=O)[C@H](NC(=O)[C@H](C)NC(=O)[C@H](NC(=O)[C@H](C)NC(=O)CNC(=O)[C@@H](NC=O)C(C)C)C(C)C)C(C)C)C(C)C)C(C)C)C(=O)N[C@@H](Cc1c[nH]c2ccccc12)C(=O)NCCO [compound 12432] (For-VGA[dV]A[dV]V[dL]W[dL]W[dV]W[dL]W-NHCH2CH2OH) | - | 6.4% | 1.01
CNC(=O)C[C@@H](NC(=O)[C@H](Cc1c[nH]c2ccccc12)NC(=O)[C@@H](CC(C)C)NC(=O)[C@H](Cc1c[nH]c2ccccc12)NC(=O)[C@@H](CC(C)C)NC(=O)[C@@H](NC(=O)[C@H](NC(=O)[C@H](C)NC(=O)[C@H](NC(=O)[C@H](C)NC(=O)CNC(=O)[C@@H](NC=O)C(C)C)C(C)C)C(C)C)C(C)C)C(=O)N[C@@H](Cc1c[nH]c2ccccc12)C(=O)N[C@H](CC(C)C)C(=O)N[C@@H](Cc1c[nH]c2ccccc12)C(=O)NCCO [compound 4203] (For-VGA[dV]A[dV]V[dL]W[dL]W[dD](NHMe)W[dL]W-NHCH2CH2OH) | - | 100% | 1.16
CC(C)C[C@@H](NC(=O)[C@H](Cc1c[nH]c2ccccc12)NC(=O)[C@@H](CC(C)C)NC(=O)[C@@H](NC(=O)[C@H](NC(=O)[C@H](C)NC(=O)[C@H](NC(=O)[C@H](C)NC(=O)CNC(=O)[C@@H](NC=O)C(C)C)C(C)C)[C@H](C)O)C(C)C)C(=O)N[C@@H](Cc1c[nH]c2ccccc12)C(=O)N[C@H](CC(C)C)C(=O)N[C@@H](Cc1c[nH]c2ccccc12)C(=O)N[C@@H](C(=O)N[C@@H](Cc1c[nH]c2ccccc12)C(=O)NCCO)C(C)C [compound 2495] (For-VGA[dV]A[dT]V[dL]W[dL]W[dL]W[dV]W-NHCH2CH2OH) | - | 100% | 1.22
CC(C)C[C@@H](NC(=O)[C@H](C)NC(=O)[C@H](NC(=O)[C@H](C)NC(=O)CNC(=O)[C@@H](NC=O)C(C)C)[C@H](C)O)C(=O)N[C@H](C(=O)N[C@H](CC(C)C)C(=O)N[C@@H](Cc1c[nH]c2ccccc12)C(=O)N[C@@H](C(=O)N[C@@H](Cc1c[nH]c2ccccc12)C(=O)N[C@H](CC(C)C)C(=O)N[C@@H](Cc1c[nH]c2ccccc12)C(=O)N[C@@H](C(=O)N[C@@H](Cc1c[nH]c2ccccc12)C(=O)NCCO)[C@H](C)O)C(C)C)C(C)C [compound 3130] (For-VGA[dT]A[dL]V[dL]W[dV]W[dL]W[dT]W-NHCH2CH2OH) | - | 100% | 1.05
CC(C)C[C@@H](NC(=O)[C@H](C)NC(=O)CNC(=O)[C@@H](NC=O)C(C)C)C(=O)N[C@@H](C)C(=O)N[C@H](CC(C)C)C(=O)N[C@H](C(=O)N[C@@H](C(=O)N[C@@H](Cc1c[nH]c2ccccc12)C(=O)N[C@@H](C(=O)N[C@@H](Cc1c[nH]c2ccccc12)C(=O)N[C@H](CC(C)C)C(=O)N[C@@H](Cc1c[nH]c2ccccc12)C(=O)N[C@H](CC(C)C)C(=O)N[C@@H](Cc1c[nH]c2ccccc12)C(=O)NCCO)C(C)C)[C@H](C)O)C(C)C [compound 1631] (For-VGA[dL]A[dL]V[dT]W[dV]W[dL]W[dL]W-NHCH2CH2OH) | - | 100% | 1.04
CC(C)C[C@@H](NC(=O)[C@H](C)NC(=O)[C@H](NC(=O)[C@H](C)NC(=O)CNC(=O)[C@@H](NC=O)C(C)C)C(C)C)C(=O)N[C@H](C(=O)N[C@H](CC(C)C)C(=O)N[C@@H](Cc1c[nH]c2ccccc12)C(=O)N[C@H](CC(C)C)C(=O)N[C@@H](Cc1c[nH]c2ccccc12)C(=O)N[C@@H](C(=O)N[C@@H](Cc1c[nH]c2ccccc12)C(=O)N[C@@H](C(=O)N[C@@H](Cc1c[nH]c2ccccc12)C(=O)NCCO)[C@H](C)O)C(C)C)C(C)C [compound 3828] (For-VGA[dV]A[dL]V[dL]W[dL]W[dV]W[dT]W-NHCH2CH2OH) | + | 95.2% | 1.02
